The results in this text go back to paper PMC2935290 (Journal of immunology (Baltimore, Md. : 1950), 2010).

Substitutions are numbered along the chain they refer to. Where a SMILES comes first, the peptide text is derived from it. Where no end group is shown, it is not given here.

In one test the target is T1, HLA-DPB1*0201 (Homo sapiens, UniProt P04440+P20036, A65V/A84D/A85E/K98E).
T1 sequence (P04440 30-258 A65V/A84D/A85E/K98E): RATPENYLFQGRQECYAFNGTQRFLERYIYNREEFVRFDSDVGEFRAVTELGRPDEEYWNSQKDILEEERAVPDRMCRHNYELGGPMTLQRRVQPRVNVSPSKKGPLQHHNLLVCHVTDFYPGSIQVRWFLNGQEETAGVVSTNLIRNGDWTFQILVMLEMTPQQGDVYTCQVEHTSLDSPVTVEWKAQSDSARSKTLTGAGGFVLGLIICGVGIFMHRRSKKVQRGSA
T1 sequence (P20036 29-260): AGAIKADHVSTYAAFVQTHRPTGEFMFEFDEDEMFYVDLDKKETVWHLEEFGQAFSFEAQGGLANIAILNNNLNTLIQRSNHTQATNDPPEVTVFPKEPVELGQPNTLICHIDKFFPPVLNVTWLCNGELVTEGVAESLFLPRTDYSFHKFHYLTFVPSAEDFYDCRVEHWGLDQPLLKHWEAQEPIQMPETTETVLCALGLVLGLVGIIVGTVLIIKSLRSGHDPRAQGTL
Briefly: biochemical. Type of test: binding.

Another test addresses T2, HLA-DPB1*0402 (Homo sapiens, UniProt P04440+P20036, A65V/A84D/A85E/L207M).
T2 sequence (P04440 30-258 A65V/A84D/A85E): T1 sequence (P04440 30-258 A65V/A84D/A85E/K98E) with E69K
T2 sequence (P20036 29-260): T1 sequence (P20036 29-260)
Kind of test: biochemical. It is filed as binding.

Turning to `CC[C@H](C)[C@H](NC(=O)[C@H](Cc1ccc(O)cc1)NC(=O)[C@H](CCC(=O)O)NC(=O)[C@H](Cc1ccccc1)NC(=O)[C@H](C)NC(=O)[C@H](CCC(N)=O)NC(=O)[C@H](CO)NC(=O)[C@@H]1CCCN1C(=O)[C@@H](N)CC(C)C)C(=O)N[C@@H](CC(C)C)C(=O)N[C@@H](Cc1ccc(O)cc1)C(=O)N[C@@H](CC(N)=O)C(=O)N[C@@H](CCCCN)C(=O)NCC(=O)O`, the IC50 on HLA-DPB1*0201 is 1 nM; at HLA-DPB1*0402, 9.6 nM.
TPTEKDEYCARVNH displayed an IC50 against HLA-DPB1*0402 of 14000 nM.
For the compound `CC(C)C[C@H](NC(=O)[C@H](CO)NC(=O)[C@H](CCC(N)=O)NC(=O)[C@@H](N)CC(C)C)C(=O)N[C@H](C(=O)N[C@@H](CO)C(=O)N[C@@H](CCC(N)=O)C(=O)N[C@@H](Cc1ccc(O)cc1)C(=O)N[C@@H](Cc1ccccc1)C(=O)N[C@@H](CCC(N)=O)C(=O)N[C@H](C(=O)N[C@H](C(=O)N[C@@H](C)C(=O)N[C@@H](CC(=O)O)C(=O)N[C@@H](Cc1ccc(O)cc1)C(=O)O)C(C)C)[C@@H](C)O)C(C)C`, at HLA-DPB1*0201, the IC50 stood at 2.7 nM.
Consider `CC[C@H](C)[C@H](NC(=O)[C@H](C)NC(=O)[C@H](CC(=O)O)NC(=O)[C@H](CCCCN)NC(=O)[C@H](CC(C)C)NC(=O)[C@@H](NC(=O)[C@H](CCC(=O)O)NC(=O)[C@H](C)NC(=O)[C@H](Cc1ccccc1)NC(=O)[C@@H](NC(=O)[C@H](Cc1c[nH]cn1)NC(=O)[C@@H](NC(=O)[C@H](CCC(N)=O)NC(=O)[C@H](CC(C)C)NC(=O)[C@H](Cc1ccccc1)NC(=O)[C@@H](N)C(C)C)[C@@H](C)O)[C@@H](C)CC)C(C)C)C(=O)N[C@@H](CCCCN)C(=O)N[C@@H](CC(=O)O)C(=O)N[C@@H](CC(C)C)C(=O)O`, for which the IC50 against HLA-DPB1*0201 worked out at 32 nM; against HLA-DPB1*0402, 5.6 nM.
In the same order, the values of `CC[C@H](C)[C@H](NC(=O)[C@H](Cc1c[nH]c2ccccc12)NC(=O)[C@H](CCSC)NC(=O)[C@H](CC(C)C)NC(=O)[C@H](CC(C)C)NC(=O)[C@@H](N)CO)C(=O)N[C@H](C(=O)N[C@@H](CCC(N)=O)C(=O)N[C@@H](CS)C(=O)N[C@@H](Cc1ccccc1)C(=O)N[C@@H](CC(C)C)C(=O)N1CCC[C@H]1C(=O)N[C@H](C(=O)O)C(C)C)[C@@H](C)O` are 1.3 nM and 6.1 nM.
In the same order, the values of `CC[C@H](C)[C@H](NC(=O)[C@@H](N)CCCCN)C(=O)N[C@@H](Cc1ccccc1)C(=O)NCC(=O)N[C@@H](CO)C(=O)N[C@@H](CC(C)C)C(=O)N[C@@H](C)C(=O)N[C@@H](Cc1ccccc1)C(=O)N[C@@H](CC(C)C)C(=O)N1CCC[C@H]1C(=O)N[C@@H](CCC(=O)O)C(=O)N[C@@H](CO)C(=O)N[C@@H](Cc1ccccc1)C(=O)N[C@@H](CC(=O)O)C(=O)NCC(=O)N[C@@H](CC(=O)O)C(=O)N1CCC[C@H]1C(=O)N[C@@H](C)C(=O)O` are 9 nM and 143 nM.
Consider LTGYSLFQKEKMVLN, for which the midpoint of inhibition at HLA-DPB1*0201, the IC50, lay at 180 nM.
Turning to INEPTAAAIAYGLDR, the IC50 was determined as 4150 nM against HLA-DPB1*0201 and 11600 nM against HLA-DPB1*0402.
In the same order, the values of EEVDMTPADALDDFD are 5800 nM and 26000 nM.
In the same order, the values of `CC[C@H](C)[C@H](NC(=O)[C@H](CC(=O)O)NC(=O)[C@H](CC(=O)O)NC(=O)[C@H](Cc1ccccc1)NC(=O)[C@H](C)NC(=O)[C@H](CCCCN)NC(=O)[C@H](CCC(N)=O)NC(=O)[C@@H](NC(=O)[C@H](CCCCN)NC(=O)[C@@H](N)CCC(=O)O)[C@@H](C)CC)C(=O)N[C@@H](C)C(=O)N[C@@H](CCCCN)C(=O)N[C@@H](Cc1ccc(O)cc1)C(=O)N[C@@H](Cc1ccccc1)C(=O)N[C@@H](CO)C(=O)N[C@@H](CCCCN)C(=O)O` are 75 nM and 506 nM.
In the same order, the values of FFLLTRILTIPQSLD are 0.3 nM and 1.2 nM.
Take DKKETVWHLE: the IC50 on HLA-DPB1*0201 was determined as 93 nM; at HLA-DPB1*0402, 3740 nM.
With `CC[C@H](C)[C@H](NC(=O)[C@@H](N)Cc1c[nH]c2ccccc12)C(=O)N[C@H](C(=O)N[C@@H](CCC(N)=O)C(=O)N[C@@H](CS)C(=O)N[C@@H](Cc1ccccc1)C(=O)N[C@@H](CC(C)C)C(=O)N1CCC[C@H]1C(=O)N[C@H](C(=O)N[C@@H](Cc1ccccc1)C(=O)N[C@@H](CC(C)C)C(=O)N[C@@H](C)C(=O)N[C@@H](CCC(N)=O)C(=O)N1CCC[C@H]1C(=O)N1CCC[C@H]1C(=O)N[C@@H](CO)C(=O)NCC(=O)N[C@@H](CCC(N)=O)C(=O)N[C@@H](CCCNC(=N)N)C(=O)N[C@@H](CCCNC(=N)N)C(=O)O)C(C)C)[C@@H](C)O`, 25 nM corresponded to half-maximal inhibition at HLA-DPB1*0402 (IC50).
Turning to DTLRSYYADWYQQKPG, the IC50 at HLA-DPB1*0201 came out at 188 nM; at HLA-DPB1*0402, 1550 nM.
As for `CC[C@H](C)[C@H](NC(=O)[C@H](CCC(N)=O)NC(=O)[C@H](CS)NC(=O)[C@H](Cc1ccc(O)cc1)NC(=O)[C@H](CC(N)=O)NC(=O)[C@H](CO)NC(=O)[C@@H](NC(=O)CNC(=O)[C@H](Cc1ccccc1)NC(=O)[C@H](CCCNC(=N)N)NC(=O)[C@H](CCC(N)=O)NC(=O)[C@H](C)NC(=O)[C@@H](N)CC(N)=O)[C@@H](C)CC)C(=O)O`, the IC50 against HLA-DPB1*0201 was found to be 7.8 nM; on HLA-DPB1*0402, 365 nM.
As to DVKFPGGGQIVGGVYLLPRR, the IC50 against HLA-DPB1*0402 was found to be 33 nM.
Take `CC[C@H](C)[C@H](NC(=O)[C@H](CC(=O)O)NC(=O)[C@@H](N)CCCCN)C(=O)N[C@@H](CC(C)C)C(=O)N[C@@H](CCC(=O)O)C(=O)N[C@@H](CC(=O)O)C(=O)N[C@@H](CCC(=O)O)C(=O)N[C@@H](CCCNC(=N)N)C(=O)N[C@@H](C)C(=O)N[C@@H](C)C(=O)N[C@H](C(=O)N[C@@H](CC(=O)O)C(=O)N[C@H](C(=O)N[C@@H](Cc1ccc(O)cc1)C(=O)N[C@@H](CS)C(=O)O)[C@@H](C)O)C(C)C`: the figures for the IC50 against HLA-DPB1*0201 and against HLA-DPB1*0402 were 10500 nM and 4200 nM, respectively.
In the same order, the values of `CSCC[C@H](NC(=O)[C@H](CCCNC(=N)N)NC(=O)[C@H](CCSC)NC(=O)[C@H](CCCCN)NC(=O)[C@H](CO)NC(=O)[C@@H](NC(=O)[C@@H]1CCCN1C(=O)[C@@H](N)CCCCN)C(C)C)C(=O)N[C@@H](C)C(=O)N[C@H](C(=O)N1CCC[C@H]1C(=O)N[C@@H](CC(C)C)C(=O)N[C@@H](CC(C)C)C(=O)N[C@@H](CCSC)C(=O)N[C@@H](CCC(N)=O)C(=O)N[C@@H](C)C(=O)N[C@@H](CC(C)C)C(=O)N1CCC[C@H]1C(=O)O)[C@@H](C)O` are 161 nM and 138 nM.
In the same order, the values of `CC[C@H](C)[C@H](NC(=O)[C@H](CS)NC(=O)[C@@H]1CCCN1C(=O)[C@H](CCC(=O)O)NC(=O)[C@H](CO)NC(=O)CNC(=O)[C@@H](N)Cc1c[nH]cn1)C(=O)N[C@H](C(=O)N[C@@H](Cc1c[nH]cn1)C(=O)N[C@@H](CCCNC(=N)N)C(=O)NCC(=O)N[C@@H](CCCCN)C(=O)N1CCC[C@H]1C(=O)N[C@@H](Cc1ccccc1)C(=O)N[C@@H](CCC(N)=O)C(=O)N[C@@H](CC(C)C)C(=O)N[C@@H](CCC(=O)O)C(=O)N[C@@H](C)C(=O)N[C@H](C(=O)O)C(C)C)[C@@H](C)CC` are 820 nM and 1410 nM.
`CSCC[C@H](NC(=O)[C@H](CCSC)NC(=O)[C@@H](N)CCCNC(=N)N)C(=O)N[C@@H](CCC(=O)O)C(=O)N[C@@H](Cc1ccc(O)cc1)C(=O)NCC(=O)N[C@H](C(=O)N[C@H](C(=O)N[C@@H](CCSC)C(=O)N[C@H](C(=O)N[C@@H](CO)C(=O)N[C@@H](Cc1ccc(O)cc1)C(=O)N[C@@H](CCC(N)=O)C(=O)N1CCC[C@H]1C(=O)N[C@@H](CC(C)C)C(=O)O)C(C)C)[C@@H](C)O)[C@@H](C)O`: the IC50 on HLA-DPB1*0201 amounted to 725 nM; at HLA-DPB1*0402, 1310 nM.
In the same order, the values of `CC[C@H](C)[C@H](NC(=O)[C@H](CO)NC(=O)[C@H](Cc1ccc(O)cc1)NC(=O)[C@H](C)NC(=O)[C@H](CS)NC(=O)[C@H](CC(C)C)NC(=O)[C@H](CC(C)C)NC(=O)[C@H](CS)NC(=O)[C@@H](N)CC(=O)O)C(=O)N[C@@H](CCC(=O)O)C(=O)N[C@@H](Cc1ccccc1)C(=O)NCC(=O)N[C@H](C(=O)N[C@@H](CC(N)=O)C(=O)N[C@H](C(=O)N[C@@H](CO)C(=O)N[C@@H](CCCCN)C(=O)N[C@@H](CCC(=O)O)C(=O)N[C@@H](Cc1c[nH]cn1)C(=O)N[C@@H](CC(=O)O)C(=O)O)[C@@H](C)CC)[C@@H](C)O` (H-DCLLCAYSIEFGTNISKEHD-OH) are 343 nM and 232 nM.
In the same order, the values of RSQPGLCNMYKDSHHPARTA are 4590 nM and 7780 nM.
As for NNKYAASSYLSLTPE, the values for the IC50 at HLA-DPB1*0201 and against HLA-DPB1*0402 were 2.4 nM and 42 nM, respectively.
In the case of `CC[C@H](C)[C@H](NC(=O)[C@H](C)NC(=O)[C@H](CS)NC(=O)[C@H](C)NC(=O)[C@H](CC(C)C)NC(=O)[C@@H](NC(=O)CNC(=O)[C@H](CC(=O)O)NC(=O)[C@H](CC(=O)O)NC(=O)CNC(=O)[C@@H](N)CCSC)C(C)C)C(=O)N[C@@H](C)C(=O)N[C@H](C(=O)N[C@@H](Cc1c[nH]cn1)C(=O)N[C@@H](C)C(=O)N[C@@H](CCCCN)C(=O)N[C@H](C(=O)N[C@@H](CCCNC(=N)N)C(=O)N[C@@H](CC(=O)O)C(=O)O)[C@@H](C)CC)[C@@H](C)O`, the IC50 against HLA-DPB1*0201 is 8790 nM.
As for RELWWVFYAAD, inhibition against HLA-DPB1*0201 was half-maximal at 291 nM (IC50).
Turning to FDRSTKVIDFHYPNE, on HLA-DPB1*0402, inhibition was half-maximal at 30400 nM (IC50).

Broadly, the IC50 is the concentration needed to halve the response being measured. The low end stands for higher potency, the high end for lower potency.
